≈ marks a conversion by molar mass, not a printed value. Like-named read-outs stand apart in the source and are kept apart here.
Assays:
Type in all cases: cell-based
[1] = test system: vancomycin resistant enterococci (VRE) E. faecalis; test: Broth microdilution MIC/MBC, VRE E. faecalis; conditions: for MIC: read-out: MIC
[2] = test system: vancomycin resistant enterococci (VRE) E. faecium; test: Broth microdilution MIC/MBC, VRE E. faecium; conditions: for MIC: read-out: MIC
B. licheniformis = test: Broth microdilution MIC/MBC, B. licheniformis; conditions: Bacillus licheniformis; for MBC: read-out: MBC; for MIC: read-out: MIC
Klebsiella pneumoniae = test: MIC with/without sub-MIC colistin, Klebsiella pneumoniae
Outline: (§1)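 Sub-MIC colistin or PMBN added to broth MIC tests of rhodanines and reference antibiotics against Gram-negative strains; AcrAB efflux-deficient E. coli SM1411ΔacrAB also tested.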

Pseudomonas aeruginosa [3] = test: MIC with/without sub-MIC colistin, Pseudomonas aeruginosa
Outline: as §1

Acinetobacter baumannii = test: MIC with/without PMBN, Acinetobacter baumannii
Outline: as §1

Salmonella Typhimurium = test: MIC with/without PMBN, Salmonella Typhimurium
Protocol: The MIC of the rhodanines and control antibiotics, in the presence of a sub-inhibitory concentration of colistin or polymixin B nonapeptide (PMBN), against Gram-negative bacteria was evaluated as described before. The antibacterial activity of the rhodanines was further investigated against E. coli SM1411Δ acrAB, a strain that is deficient in the multidrug-resistant AcrAB efflux pump, as described before.

Pseudomonas aeruginosa [4] = test: MIC with/without PMBN, Pseudomonas aeruginosa
Outline: as §1

[5] = E. faecalis NR31972 Strain SF 28073
[6] = E. faecium HM 968 Strain ERV102
[7] = E. faecium NR31914 Strain E0120
[8] = E. faecium Patient #1–1 NR-31903
[9] = NCIB9375, B. licheniformis Gibson 46 (NCIB 9375) NR-2494
[10] = NRS712, B. licheniformis NRS 712 NR-2499

CC(=O)NC[C@H]1CN(c2ccc(N3CCOCC3)c(F)c2)C(=O)O1 [Linezolid, linezolid, reference compound]
MBC ([1]; E. faecalis ERV103 HM-934): > 64 µM | MIC ([1]; E. faecalis ERV103 HM-934): 2 µM (≈ 0.675 µg/mL) | MBC [1, 5]: 32 µM (≈ 10.8 µg/mL) | MIC [1, 5]: 2 µM (≈ 0.675 µg/mL) | MBC ([1]; E. faecalis R712 HM-335): 32 µM (≈ 10.8 µg/mL) | MIC ([1]; E. faecalis R712 HM-335): 2 µM (≈ 0.675 µg/mL) | MBC ([1]; E. faecalis S613 HM-334): 64 µM (≈ 21.6 µg/mL) | MIC ([1]; E. faecalis S613 HM-334): 2 µM (≈ 0.675 µg/mL) | MBC ([1]; E. faecalis TX0104 HM-201): > 64 µM | MIC ([1]; E. faecalis TX0104 HM-201): 2 µM (≈ 0.675 µg/mL) | MBC ([2]; E. faecium E417 HM-965): > 64 µM | MIC ([2]; E. faecium E417 HM-965): 2 µM (≈ 0.675 µg/mL) | MBC ([2]; E. faecium E1071 NR-28978): > 64 µM | MIC ([2]; E. faecium E1071 NR-28978): 2 µM (≈ 0.675 µg/mL) | MBC [2, 6]: > 64 µM | MIC [2, 6]: 2 µM (≈ 0.675 µg/mL) | MBC [2, 7]: > 64 µM | MIC [2, 7]: 2 µM (≈ 0.675 µg/mL) | MBC [2, 8]: > 64 µM | MIC [2, 8]: 16 µM (≈ 5.4 µg/mL) | MBC (B. licheniformis; [9]): 2 µM (≈ 0.675 µg/mL) | MIC (B. licheniformis; [9]): 1 µM (≈ 0.337 µg/mL) | MBC (B. licheniformis; [10]): 4 µM (≈ 1.35 µg/mL) | MIC (B. licheniformis; [10]): 2 µM (≈ 0.675 µg/mL) | MIC (Klebsiella pneumoniae; Klebsiella pneumoniae ATCC BAA 2146, colistin (+) […]): >64 µM | MIC (Klebsiella pneumoniae; Klebsiella pneumoniae, BAA2146): > 128 µM | MIC (Pseudomonas aeruginosa [3]; Pseudomonas aeruginosa ATCC 921, colistin (+) […], read-out: MIC): 64 µM (≈ 21.6 µg/mL) | MIC (Pseudomonas aeruginosa [3]; Pseudomonas aeruginosa, ATCC921): > 128 µM | MIC (Acinetobacter baumannii; Acinetobacter baumannii ATCC BAA747, PMBN (+) 4 μg/mL, read-out: MIC): >64 µM | MIC (Acinetobacter baumannii; Acinetobacter baumannii ATCC BAA19606, PMBN (+) 4 μg/mL, read-out: MIC): >64 µM | MIC (Acinetobacter baumannii; Acinetobacter baumannii, ATCCBAA747): > 128 µM | MIC (Acinetobacter baumannii; Acinetobacter baumannii, ATCCBAA19606): > 128 µM | MIC (Salmonella Typhimurium; Salmonella Typhimurium ATCC 700720, PMBN (+) 4 μg/mL, read-out: MIC): 64 µM (≈ 21.6 µg/mL) | MIC (Salmonella Typhimurium; Salmonella enterica, ATCC 700720 / TYPHIMURIUM): > 128 µM | MIC (Pseudomonas aeruginosa [4]; Pseudomonas aeruginosa ATCC 9721, PMBN (+) 4 μg/mL, read-out: MIC): 16 µM (≈ 5.4 µg/mL) | MIC (Pseudomonas aeruginosa [4]; Pseudomonas aeruginosa, ATCC9721): > 128 µM
